From patent EP2548557A1, “Reserpine to treat cognitive faults of the central nervous system” (Dr. Loges + Co. GmbH, priority 2011, dated 2013)

Assays:
[1] = tested on: metabotrope Gruppe II Rezeptoren; assay: Hippocampus slice preparation: suppression of the reserpine effect by a glutamate receptor antagonist (metabotropic group II); assay type: cell-based, Ratte; settings: co-superfusion of antagonist with Reserpin; single and multiple stimuli (Abb. 5, Abb. 6)
From the text: (§1) Wirkungen von Reserpin auf die Erregbarkeit der Pyramidenzellen wurden im Hippokampus-Schnittpräparat der Ratte bestimmt. Die Analyse der Wirkungen erfolgte auf zwei Ebenen. Zunächst wurde anhand der Applikation von Einzelreizen die normale Erregbarkeit überprüft und anschließend nach einer sog. "Theta-burst-Stimulation" die Auswirkungen auf die Langzeitpotenzierung gemessen. Im nächsten Schritt wurde versucht, die Wirkung von Reserpin mit Hilfe von verschiedenen Rezeptor-spezifischen Glutamat Antagonisten zu unterdrücken.
(§2) Desweiteren wurde die Erregbarkeit der Pyramidenzellen in der Ausgangslage durch Superfusion mit einem Glutamat Rezeptor Antagonisten verändert. In der Folge wurde dann gleichzeitig Reserpin mit den verschiedenen Antagonisten zusammen superfundiert, um eine antagonistische Wirkung zu erkennen.
(§3) Dieselbe Versuchsanordnung wurde noch einmal genutzt, um in Gegenwart verschiedenster Glutamat Rezeptor Antagonisten Hinweise für eine Interaktion zwischen Reserpin und einem der Glutamat-Rezeptoren (GluR5 Kainate steht dabei für den ionotropen GluR5 Kainate-Rezeptor, Glu NMDA - für ionotrope NMDA-Rezeptoren, Glu AMPA - für ionotrope AMPA-Rezeptoren, und Glu II - für metabotrope Gruppe II Rezeptoren) zu erhalten (Abb. 5 und Abb.6).
(§4) Es wurden vier Antagonisten getestet. Dabei steht UB 301 für den Kainate-Rezeptor-Antagonisten UBP 301, CAS-Nr. 569371-10-4, der Formel [drawing 2] […]

[2] = tested on: ionotrope AMPA-Rezeptoren; assay: Hippocampus slice preparation: suppression of the reserpine effect by a glutamate receptor antagonist (AMPA); assay type: cell-based, Ratte; settings: co-superfusion of antagonist with Reserpin; multiple stimuli
From the text: as §1, §2, §3, §4

Fischer-344 Ratten = assay: Tele-Stereo-EEG: changes of EEG frequencies (spectral power) after oral administration; assay type: in vivo, Ratte
Protocol: Die Veränderungen der EEG-Frequenzen wurde nach oraler Gabe von Lactosemonohydrat (Kontrolle/Vehikel) bzw. Verdünnungen von Reserpin in Lactosemonohydrat entsprechend 0,01, 0,02 oder 0,04 µg Reserpin/kg Körpergewicht) bestimmt.
Die Untersuchungen wurden analog der durch W. Dimpfel beschriebenen Methode (Dimpfel W Preclinical data base of pharmaco-specific rat EEG fingerprints (Tele-Stereo-EEG). Eur J Med Res (2003) 8: 199-207; auf dieses Dokument wird vollinhaltlich bezug genommen) folgendermaßen durchgeführt:
Zwölf männlichen erwachsenen Fischer-344 Ratten (Tag-Nacht konvertiert) wurden im Alter von 6 Monaten 4 bipolar konzentrische Elektroden zusammen mit einem Mikrostecker auf einer gemeinsamen Basisplatte implantiert. Der Stecker diente der Aufnahme eines 4-Kanal-Senders zur telemetrischen Übertragung der aus frontalem Kortex, Hippokampus, Striatum und Formatio Reticularis abgeleiteten Feldpotentiale. Die Signale wurden auf einem Computer System (Software "EEG-Analyse", Betriebssystem OS Science, Laborrechner "LabTeam" der Firma MediSyst, Linden, DE) in Echtzeit einer Fast-FourierTransformation unterworfen und die Leistungsdichtespektren jeweils über 60 Minuten gemittelt. Die Unterteilung der Spektren in 6 verschiedene Frequenzbereiche erlaubte die Erfassung pharmako-spezifischer Veränderungen in Bezug auf die jeweils vor Applikation gemessenen Vorwerte innerhalb dieser Frequenzbänder.
Zum Applikationsprotokoll der Substanzen: die Substanzen wurden oral 45 Minuten nach Beginn der Messungen (Vorwert) appliziert. Fünf Minuten später wurden die Messungen wieder gestartet, mindestens über die nächsten 5 Stunden kontinuierlich analysiert und in 60-minütigen Perioden zusammengefasst. Die Testsubstanz wurde in einer Dosierung von 0,01, 0,02 und 0,04 µg/kg appliziert. Die experimentelle Serie wurde mit der Applikation von Lactosemonohydrat (Kontrolle), die zu keiner auffälligen Änderung führte, begonnen (oberste Zeile in Abb. 1).
Der statistische Vergleich der Versuche zu den Ergebnissen, die nach Gabe des Vehikels gemessen wurde, erfolgte mit Hilfe des statistischen Tests nach Wilcoxon, Mann und Whitney auf der Basis der Veränderungen innerhalb der einzelnen Frequenzbänder in allen Hirnregionen als Variablen.

[3] = tested on: Pyramidenzellen im Hippokampus-Schnittpräparat; assay: Population spike of pyramidal cells and long-term potentiation in hippocampus slice preparation in vitro; assay type: cell-based, Ratte; settings: 0,025-0,1 µg/Liter Reserpin, n=4 slices
From the text: Zunächst wurde anhand der Applikation von Einzelreizen die normale Erregbarkeit überprüft und anschließend nach einer sog. "Theta-burst-Stimulation" die Auswirkungen auf die Langzeitpotenzierung gemessen.
Das Experiment selbst wurde in einer sog. "Base Unit" mit Haas Top" (Firma Medical Systems Corp., USA) bei 35 Grad Celsius durchgeführt. Der mit Hilfe peristaltischer Pumpen (Infusomat B. Braun Melsungen AG) superfundierte Hippokampus-Schnitt lag auf einem Stück Gaze. Eingeleitetes Carbogen hielt die erforderliche Sauerstoffzufuhr der Lösung aufrecht. Die Durchflussgeschwindigkeit betrug 200 ml/h.
Dabei wurde der Schnitt zunächst mit Kontrolllösung superfundiert. […] Jeder Schnitt wurde jeweils nur zu einem Experiment benutzt.
Die Ableitung der evozierten Antwort erfolgte in 10-minütigem Abstand extrazellulär mit einer gezogenen Glaskapillare (Elektrodenpuller, Rhema Labortechnik, DE). Das Antwortsignal wurde verstärkt (Verstärker "LMI", List Electronics, Darmstadt, DE) mit einem Laborrechnersystem Labteam (Software NeuroTool, MediSyst GmbH, Linden DE) analog digital gewandelt (Auflösung 12 Bit) und ausgewertet. Nach Auffinden eines geeigneten Signals (Amplitudenhöhe etwa 1 mV) wurde die Amplitudenhöhe des Populationsspikes (SAP=Summenaktionspotential; Popspike) als Ausgangsgröße festgelegt. […]

[4] = tested on: Pyramidenzellen im Hippokampus-Schnittpräparat; settings: literature description (Dimpfel 1995) used as comparison; cited from earlier work

For NC1(C(=O)O)CCc2cc(P(=O)(O)O)ccc21 (racemic) [RS-Apica, (RS)-1-Amino-5-phosphono-indan-1-carbonsäure], the “Unterdrückung der Wirkung von Reserpin durch Antagonist” value [1] was “besonders ausgeprägt unterdrücken”.
With NS(=O)(=O)c1cccc2c1c([N+](=O)[O-])cc1[nH]c(=O)c(=O)[nH]c12 [NBQX] the “Unterdrückung der Wirkung von Reserpin durch Antagonist” value [2] was “auch eine Unterdrückung”.
With COC(=O)[C@H]1[C@H]2C[C@@H]3c4[nH]c5cc(OC)ccc5c4CCN3C[C@H]2C[C@@H](OC(=O)c2cc(OC)c(OC)c(OC)c2)[C@@H]1OC [Reserpin, (1S,2R,3R,4aS,13bR,14aS)-2,11-Dimethoxy-3-(3,4,5-trimethoxybenzoyloxy)-1,2,3,4,4a,5,7,8,13,13b,14,14a-dodecahydroindolo[2',3':3,4]pyrido[1,2-b]isochinolin-1-carbonsäuremethylester] the “Frequenzmuster in der Diskriminanzanalyse im Vergleich zu Referenzmedikamenten” value (Fischer-344 Ratten; 0.02 µg/kg, 35 - 65 min, linear discriminant analysis, 4 brain regions x 6 frequency bands, compared with Memantin, Rasagiline, Methylphenidat) was “korreliert in auffälliger Weise mit den Mustern”, the “Steigerung der Motilität der Tiere” value (Fischer-344 Ratten; oral, 0,01, 0,02 and 0,04 µg/kg) was “nicht beobachtet” and the “alpha2 Wellen (spektrale Leistung)” value (Fischer-344 Ratten; oral, 0,01, 0,02 and 0,04 µg/kg, frequency band most affected) was “Besonders stark waren die alpha2 Wellen betroffen”. The “spektrale Leistung in allen Frequenzbereichen (EEG)” value (Fischer-344 Ratten; oral, 0,01, 0,02 and 0,04 µg/kg, frontal cortex, hippocampus, striatum, formatio reticularis, vs. vehicle Lactosemonohydrat, n=12) was “dosis-abhängigen Unterdrückung der spektralen Leistung in allen Frequenzbereichen”, the “Amplitude des Populationsspikes bei Einzelreizung” value ([3]; single stimuli of Schaffer collaterals) was “Konzentrations-abhängige Zunahme” and the “Auslösung der Langzeitpotenzierung durch TBS” value ([3]; theta-burst stimulation) was “Konzentrations-abhängig verbessert”.
In the case of CC12CC3CC(C)(C1)CC(N)(C3)C2 [Memantin], the “Langzeit-Potenzierung (LTP) bei multipler elektrischer Reizung” value [4] is listed as “Steigerung der LTP”.
